In US20230141533A1, “LACTONE COMPOUND” (FUJIFILM Corporation, priority 2021, published 2023):
Where “and” joins values, the source holds several entries; their conditions need not be identical. Equal values may be shown once.

Legend:
[1] = Water stability over time without applied voltage (HPLC residual rate); assay type: physicochemical; settings: for Residual rate (%): aqueous mixed solution with NIKKOL HCO-40, allowed to stand at 25° C. for 24 hours, HPLC area after 24 hours ÷ area immediately after preparation × 100; for water stability over time (in words): without applied voltage, 25° C., 24 hours, judged from residual rate
Procedure: Water Stability Over Time without Applied Voltage
To 1.0 part by mass of each of the compounds (1) to (9) synthesized in Examples and Comparative Examples, 1000 parts by mass of NIKKOL HCO-40 (Nikko Chemicals Co., Ltd.) and 10000 parts by mass of acetone were mixed.
Next, after removing the acetone using an evaporator at a temperature of 40° C., 10000 parts of water was added thereto to prepare a uniform mixed solution 1. The mixed solution 1 was allowed to stand at 25° C. for 24 hours.
Immediately after the preparation of the mixed solution 1 and after allowing the mixed solution 1 to stand for 24 hours, an HPLC measurement was carried out under the following analysis conditions, and a residual rate in the water stability test over time was calculated using the following expression.
(Area value after standing for 24 hours)÷(Area value immediately after preparation)×100=Residual rate (%)
SCL-10AVP manufactured by Shimadzu Corporation
Eluent: single eluent prepared by adding 0.2% by volume of each of acetic acid and triethylamine to a mixed solution obtained by mixing tetrahydrofuran (THF) and water at a ratio of 60:40

[2] = Water stability under applied voltage (square wave voltammetry, oxidation potential); assay type: physicochemical; settings: for Oxidation potential: SWV, 0.5 mM in THF:water=90:10, gold electrode, Ag wire reference, ferrocene reference substance, None = no oxidation potential, more stable than 1.3 V (THF oxidized); for water stability under applied voltage (in words): judged from whether an oxidation potential is observed
Procedure: Water Stability Under Applied Voltage
Water stability against voltage of each of the compounds (1) to (9) synthesized in Examples and Comparative Examples was evaluated by the measurement shown below.
Measurement: square wave voltammetry (SWV)
Action electrode: gold electrode
Counter electrode: platinum black electrode
Reference electrode: Ag wire
Supporting electrolyte: tetrabutylammonium hexafluorophosphate (manufactured by FUJIFILM Wako Pure Chemical Corporation)
Reference substance: ferrocene
The compound (1) was adjusted to a concentration of 0.5 mM using a mixed solvent of THF:water=90:10, and nitrogen bubbling was carried out for 10 minutes to produce a measurement sample.
Next, a measurement was performed under the above-described analysis conditions to observe an oxidation potential.
Oxidation potentials of the compounds (2) to (9) were measured under the same conditions.

Row | Structure (SMILES) | Residual rate (%) [1] [%] | Oxidation potential [2] | water stability under applied voltage (in words) [2] | water stability over time (in words) [1]
1 | Cc1cc(C)c(C2C(=O)Oc3c2cc(C(C)(C)C)cc3C(C)(C)C)c(C)c1 (stereo not drawn) [Compound (1)] | 100 | None |  | 
2 | Cc1c(C(C)(C)C)cc(C(C)(C)C)c(O)c1C1C(=O)Oc2c1cc(C(C)(C)C)cc2C(C)(C)C (stereo not drawn) [Compound (8)] | 0 | 0.65 V and 1.00 V and 1.15 V | low | 
3 | Cc1ccc(C2C(=O)Oc3c2cc(C(C)(C)C)cc3C(C)(C)C)cc1C (stereo not drawn) [Compound (5)] | 0 | None |  | deteriorated
4 | Cc1c(C)c(C)c(C2C(=O)Oc3c2cc(C(C)(C)C)cc3C(C)(C)C)c(C)c1C (stereo not drawn) [Compound (6)] | 10 | None |  | still deteriorated
5 | CCCCCCCCOc1ccc(C2C(=O)Oc3c2cc(C(C)(C)C)cc3C(C)(C)C)cc1 (stereo not drawn) [Compound (7)] | 0 | None |  | deteriorated
6 | CC(C)(C)c1cc(C2C(=O)Oc3c2cc(C(C)(C)C)cc3C(C)(C)C)c(O)c(C(C)(C)C)c1 (stereo not drawn) [Compound (9)] |  |  | low | 

Next, values leading:

Row | Residual rate (%) [1] [%] | Oxidation potential [2] | water stability under applied voltage (in words) [2] | water stability over time (in words) [1] | Structure (SMILES)
7 | 95 | None |  |  | COc1cc(OC)c(C2C(=O)Oc3c2cc(C(C)(C)C)cc3C(C)(C)C)c(OC)c1 (stereo not drawn) [Compound (2)]
8 | 95 | None |  |  | COc1cc(OC)c(C2C(=O)Oc3c2cc(C)cc3C(C)(C)C)c(OC)c1 (stereo not drawn) [Compound (4)]
9 | 90 | None |  |  | Cc1cc(C)c(C2C(=O)Oc3c2cc(C)cc3C(C)(C)C)c(C)c1 (stereo not drawn) [Compound (3)]
